Results: patent US8759390B2, “Chromene modulators of chemokine receptor activity” (Bristol-Myers Squibb Company, priority 2008, dated 2014)

What follows are molecules tested against T1, CCR2 (Homo sapiens, UniProt P41597) (assay: CCR2 binding (125I-human MCP-1 competition on human PBMC / THP-1 cells)). Settings: n = 1 unless otherwise noted; tested in one of the assays described.
T1 construct: THP-1 human monocytic leukemic cell line, which expresses endogenous CCR2; endogenous in cells; host or cells: THP-1 human monocytic leukemia cells, or human PBMC / human monocytes
T1 sequence (P41597 1-360 isoform P41597-2): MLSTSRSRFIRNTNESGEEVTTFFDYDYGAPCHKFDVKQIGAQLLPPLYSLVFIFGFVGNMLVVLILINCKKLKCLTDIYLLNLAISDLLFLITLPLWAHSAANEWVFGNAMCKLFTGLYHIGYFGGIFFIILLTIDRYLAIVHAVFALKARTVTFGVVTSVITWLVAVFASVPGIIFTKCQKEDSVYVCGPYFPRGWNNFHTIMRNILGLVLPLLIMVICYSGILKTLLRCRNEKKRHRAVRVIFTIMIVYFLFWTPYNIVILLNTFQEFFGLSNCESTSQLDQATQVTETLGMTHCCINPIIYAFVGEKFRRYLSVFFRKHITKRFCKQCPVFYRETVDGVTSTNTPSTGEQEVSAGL
Method: Antagonism of MCP-1 Binding to Human PBMC
Millipore filter plates (#MABVN1250) are treated with 100 μl of binding buffer (0.5% bovine serum albumin, 20 mM HEPES buffer and 5 mM magnesium chloride in RPMI 1640 media) for thirty minutes at room temperature. To measure binding, 50 μl of binding buffer, with or without a known concentration compound, is combined with 50 μl of ^125-I labeled human MCP-1 (to give a final concentration of […] radioligand) and 50 μl of binding buffer containing 5×10^5 cells. Cells used for such binding assays can include human peripheral blood mononuclear cells isolated by Ficoll-Hypaque gradient centrifugation, human monocytes (Weiner et al., J. Immunol. Methods. 1980, 36, 89), or the THP-1 cell line which expresses the endogenous receptor. The mixture of compound, cells and radioligand are incubated at room temperature for thirty minutes. Plates are placed onto a vacuum manifold, vacuum applied, and the plates washed three times with binding buffer containing 0.5M NaCl. The plastic skirt is removed from the plate, the plate allowed to air dry, the wells punched out and counted. The percent inhibition of binding is calculated using the total counts obtained in the absence of any competing compound and the background binding determined by addition of 100 nM MCP-1 in place of the test compound.
THP-1 Monocytic Cell Binding: Whole Cell-Based Assay
The human CCR2 binding assay was also established with the THP-1 human monocytic leukemic cell line, which expresses endogenous CCR2, using ^125I-human MCP-1 as the tracer ligand. Radioligand competition binding assays were used for assessment of binding affinity of test compounds to the CCR2 receptor. For radioligand competition studies, 100 μl containing 2.5×10^5 THP-1 cells/well (in assay buffer containing 50 mM HEPES, pH7.4, 5mM MgCl2, 1 mM CaCl2 and 0.5% BSA) were added to 96-well assay plates containing the test compounds in 3-fold serial dilution, with final concentrations ranging from 5 μM to […]. Subsequently, 50 μl ^125I-MCP-1 radioligand at a final concentration of 0.2 nM in assay buffer were added to the reaction. After a 90 minute incubation period at room temperature, the binding reaction was terminated by harvesting on GF/B filter plates (PerkinElmer Cat. No. 6005177) followed by washing with ice-cold wash buffer (50 mM HEPES, pH 7.4, 0.1% BSA, 0.5 M NaCl) to remove unbound ligand. After washing, the plate was dried for 45 minutes at 60° C. followed by addition of 40 μl MicroScint 20 scintillation fluid, sealed and analyzed by the Packard TopCount reader. Non-specific binding was determined in the presence of 10 μM (a molar excess of […]) of an in-house CCR2 small molecule antagonist (CCR2 IC50=2 nM). Specific binding of ^125I-MCP-1 was calculated as the difference between total and non-specific binding. The competition data was plotted as a percentage inhibition of radioligand specific bound in the absence of test compound (percent of total signal). After correcting for non-specific binding, IC50 values were determined The IC50 is defined as the concentration of test compound required to reduce ^125I-MCP-1 specific binding by 50% and was calculated using the four parameter logistic equation to fit the normalized data.

Row | Ki [nM] | Structure (SMILES)
1 | 430 | O=C(O)C1=Cc2ccccc2OC1c1ccc(Br)cc1 (racemic) [Example 5-15, 2-(4-bromophenyl)-2H-chromene-3-carboxylic acid]
2 | 950 | O=C(O)C1=Cc2ccccc2OC1c1ccc(Cl)cc1 (racemic) [Example 2-2, 2-(4-chlorophenyl)-2H-chromene-3-carboxylic acid]
3 | 8300 | O=C(O)C1=Cc2ccccc2OC1c1cccc(C(F)(F)F)n1 (racemic) [Example 5-25, 2-(6-trifluoromethyl-pyridin-2-yl)-2H-chromene-3-carboxylic acid]
4 | 2100 | O=C(O)C1=Cc2ccccc2OC1c1ccc2ccccc2n1 (racemic) [Example 5-22, 2-(quinolin-2-yl)-2H-chromene-3-carboxylic acid]
5 | 1900 | O=C(O)C1=Cc2ccccc2OC1c1ccc(Cl)c2ccccc12 (racemic) [Example 5-2, 2-(4-chloronaphthalen-1-yl)-2H-chromene-3-carboxylic acid]
6 | 220 | CC1(c2ccc(Cl)c(Cl)c2)Oc2ccccc2C=C1C(=O)O (racemic) [Example 4-1, 2-(3,4-dichlorophenyl)-2-methyl-2H-chromene-3-carboxylic acid]
7 | 1100 | O=C(O)C1=Cc2ccccc2OC1c1ccc(F)c(C(F)(F)F)c1 (racemic) [Example 5-24, 2-(3-trifluoromethyl-4-fluoro-phenyl)-2H-chromene-3-carboxylic acid]
8 | 390 | O=C(O)C1=Cc2ccccc2OC1c1ccc(C(F)(F)F)c(Cl)c1 (racemic) [Example 7-5, 2-(3-chloro-4-trifluoromethyl-phenyl)-2H-chromene-3-carboxylic acid]
9 | 1800 | O=C(O)C1=Cc2ccccc2OC1c1ccc2ccccc2c1 (racemic) [Example 5-4, 2-(naphthalen-2-yl)-2H-chromene-3-carboxylic acid]
10 | 4500 | O=C(O)C1=Cc2ccccc2OC1c1cc(Cl)cc(Cl)c1 (racemic) [Example 2-4, 2-(3,5-dichlorophenyl)-2H-chromene-3-carboxylic acid]
11 | 75 | O=C(O)C1=Cc2ccccc2OC1c1ccc(Cl)c(C(F)(F)F)c1 (racemic) [Example 2-1, 2-(4-chloro-3-(trifluoromethyl)phenyl)-2H-chromene-3-carboxylic acid]
12 | 4200 | Cc1cccc(C2Oc3ccccc3C=C2C(=O)O)c1 (racemic) [Example 5-20, 2-(3-methylphenyl)-2H-chromene-3-carboxylic acid]
13 | 5300 | COc1ccc(C2Oc3ccccc3C=C2C(=O)O)cc1 (racemic) [Example 2-3, 2-(4-methoxyphenyl)-2H-chromene-3-carboxylic acid]
14 | 4500 | Cc1ccc(C2Oc3ccccc3C=C2C(=O)O)cc1 (racemic) [Example 5-19, 2-(4-methylphenyl)-2H-chromene-3-carboxylic acid]
15 | 160 | Cc1cc(C2Oc3ccccc3C=C2C(=O)O)ccc1Cl (racemic) [Example 5-14, 2-(3-methyl-4-chlorophenyl)-2H-chromene-3-carboxylic acid]
16 | 1200 | O=C(O)C1=Cc2ccc3ccccc3c2OC1c1ccc(Cl)c(Cl)c1 (racemic) [Example 9-3, 2-(3,4-dichlorophenyl)-2H-benzo[h]chromene-3-carboxylic acid]
17 | 1700 | O=C(O)C1=Cc2ccccc2OC1c1ccc(Cl)c(Cl)c1 (single isomer, unassigned; (+)) [Example 6b, (+)-2-(3,4-dichlorophenyl)-2H-chromene-3-carboxylic acid]
18 | 2800 | O=C(O)C1=Cc2ccccc2OC1c1cccc([N+](=O)[O-])c1 (racemic) [Example 5-12, 2-(3-nitrophenyl)-2H-chromene-3-carboxylic acid]
19 | 560 | O=C(O)C1=Cc2ccccc2OC1c1ccc(F)c(Cl)c1 (racemic) [Example 5-8, 2-(3-chloro-4-fluorophenyl)-2H-chromene-3-carboxylic acid]
20 | 140 | O=C(O)C1=Cc2ccccc2OC1c1ccc(Cl)c(Cl)c1 (racemic) [Example 5-1, 2-(3,4-dichlorophenyl)-2H-chromene-3-carboxylic acid]
